Experimental data from patent publication US20030207843A1, “Treatment of drug-resistant human immunodeficiency virus infection” (priority 1999, published 2003).
Where two headings read alike, the source gives them in different places.

Legend:
MT-2 cells = experiment: In vitro selectivity index in MT-2 cells; type: cell-based; conditions: (50% cytotoxic dose/50% effective dose)×100
Procedure: The in vitro selectivity indexes for PFA and lipid analogs of PFA were determined in MT-2 cells and are as follows:
Note that the selectivity index ((50% cytotoxic dose/50% effective dose)×100) is much greater for the lipid analogs of PFA than for PFA itself. Since the lipid analogs have a much greater oral absorption than PFA, they may be given orally for controlling replication of drug-resistant HIV either alone or in combination with one or more antiviral agents. AZT is especially preferred in combination with the lipid analogs of PFA.

HIV-1LAI 4XAZT/M184V = experiment: p24 reduction assay in MT-2 cells, 4XAZT/M184V; type: cell-based; conditions: for Fold-resistance: 4XAZT/M184V relative to wild type virus
Procedure: Cells. MT-2 cells (AIDS Research and Reference Reagent Program, National Institute of Allergy and Infectious Diseases, National Institutes of Health) were maintained in RPMI 1640 supplemented with 10% fetal bovine serum (FBS; JRH Biosciences, Lenexa, Kans.), 10 mM HEPES buffer, 50 IU/ml penicillin and 50 μg/ml streptomycin.
Antiviral Susceptibility Assays. The antiviral activity of each compound was determined by inoculating MT-2 cells with HIV-1LAI at a multiplicity of infection (MOI) of 0.01 TCID50/cell, followed by incubation in the presence of three-fold serial drug dilutions (3 wells per dilution) (see Mellors, et. al., Antimicrob. Agents Chemother. 39:1087-1092). Five or seven days after infection, culture supernatants were harvested, lysed with 0.5% triton-X 100 and assayed for p24 antigen concentration using a commercial ELISA assay (DuPont, NEN Products, Wilmington, Del.). The antiviral activity of the compounds is expressed as the IC50, which is the concentration required to inhibit 50% of p24 antigen production. The fold-resistance of a test virus is calculated by dividing the IC50 of the test virus by the IC50 of the HIV-1LAI control virus.
Generation of Mutant Recombinant HIV-1. HIV-1 containing the desired mutations were generated by oligonucleotide directed mutagenesis (Altered Sites II, Promega) as previously described (Mellors, et. al., Molecular Pharm. 41:446-451). After mutagenesis, mutant RT was subcloned into the pxxHIV-1LAI cloning vector using the silent XmaI and XbaI restriction sites located at the 5′ and 3′ ends of RT. Clones were DNA sequenced to verify the presence of the desired mutation(s) and electroporated into MT-2 cells as described above to generate infectious mutant recombinant HIV-1.
Mutant RT was generated via oligonucleotide-directed mutagenesis and ligated into the pXXHIV-1LAI cloning vector. Cloning was facilitated by the presence of two silent restriction sites at the 5′ and 3′ ends (Xma1 and Xba1, respectively) of pXXHIV-1LAI RT. Infectious mutant recombinant HIV-1 was generated by electroporating MT-2 cells with mutated pXXHIV-1LAI clones. The presence of the desired mutations was verified by DNA sequencing.
The multi-drug resistant HIV-1 strains, 11163p1 and 11588p1, are human clinical isolates having the RT mutations indicated. HIV-1 strains treated with the lipid analogs of the present invention include wild type, e.g., xxLAI, and the like, single mutation, e.g., xxLAI MI 84V (resistant to 3TC), xxLAI L74V (resistant to ddI and ddC), xxLAI K65R (resistant to ddI, ddC, DAPD, DXG, tenofovir, and adefovir), xxLAI T215Y (resistant to AZT), and the like, double mutations, e.g., xxLAI M41 L/T215Y (resistant to AZT), xxLAI MI 84V/T215Y (resistant to 3TC and AZT), and the like, and multiple mutations, e.g., xxLAI 4XAZT ((D67N, K70R, T215Y, K219Q) resistant to AZT)), xxLAI 4XAZT/M184V ((D67N, K70R, M 184V, T215Y, K219Q) resistant to AZT and 3TC), xxLAI M5456-12 (AZT+NNRTI resistant: D67N, K70R, K103N, T215Y), xxLAI G2-3g (AZT/3TC co-resistant: M41L, D67N, M184V, H208Y, L210W, R211K, L214F, T215Y, 1293V, E297A), 11163 (multinucleoside resistant virsus: M41L, A62V, V751, F77L, K103N, F116Y, Q151M, Y181C, M184V), 11588 (multinucleoside resistant virsus: A62V, K65R, K70R, V751, F77L, F116Y, Q151M, M184V, K219Q), and the like.

NL4-3 (wild type virus) = experiment: p24 reduction assay in MT-2 cells, NL4-3; type: cell-based, HIV-1
[1] = Table 1, 4xAZT/M184V, MOI 0.01, read-out: EC50
[2] = Table 5, 4XAZT/M184V, mean ± SD, read-out: EC50

| SMILES | Selectivity Index (MT-2 cells) | EC50 (HIV-1LAI 4XAZT/M184V; [1]) | Fold-resistance (HIV-1LAI 4XAZT/M184V; Table 5) | EC50 (HIV-1LAI 4XAZT/M184V; [2]) | EC50 (NL4-3 (wild type virus); Table 4, mean ± SD) | EC50 (HIV-1LAI 4XAZT/M184V; Human immunodeficiency virus 1, MT2, Table 1, 4xAZT/M184V, MOI 0.01) | EC50 (HIV-1LAI 4XAZT/M184V; Human immunodeficiency virus 1, MT2, Table 5, 4XAZT/M184V, mean ± SD, read-out: EC50) | EC50 (NL4-3 (wild type virus); Human immunodeficiency virus 1, NL43, MT2, Table 4, mean ± SD) |
| --- | --- | --- | --- | --- | --- | --- | --- | --- |
| CCCCCCCCCCCCCCCCCCOC[C@@H](O)COP(=O)(O)C(=O)O [B-PFA, 1-O-octadecyl-sn-glycero-3-PFA] | 781 | 2.29 µM | (1.3) | 2.29 ± 1.59 µM | 2.6 ± 1.5 µM | – | – | – |
| CCCCCCCCCCCCCCCCCCOC[C@H](COP(=O)(O)C(=O)O)OCC [EB-PFA, 1-O-octadecyl-2-O-ethyl-sn-glycero-3-PFA] | 1905 | 0.58 µM | (0.9) | 0.56 ± 0.08 µM | 0.2 ± 0.2 µM | – | – | – |
| CCCCCCCCCCCCCCCCCCOC[C@H](COP(=O)(O)C(=O)O)OC [MB-PFA, 1-O-octadecyl-2-O-methyl-sn-glycero-3-PFA] | 953 | 0.48 µM | (1.2) | 0.59 ± 0.36 µM | 2.3 ± 1.9 µM | – | – | – |
| O=C(O)P(=O)(O)O [PFA, phosphonoformate, reference compound] | 137 | – | (1.3) | – | – | 15.7 µM | 22.7 ± 15.8 µM | 15.1 ± 6.1 µM |
